{"source": "patent US10696661B2", "about": "“Compounds” (Exonate Limited, priority 2015, dated 2020)", "key": {"[1]": {"tested_on": "VEGF-A165a / VEGF-A165b mRNA in primary RPE cells and ARPE-19 cells", "assay": "qRT-PCR and conventional PCR of VEGF-A alternative splicing", "format": "cell-based, human", "conditions": "FIGS. 8 and 9", "source_text": "Primary human retinal epithelial cells were lysed in Trizol reagent and mRNA was extracted using the method of Chomczynski and Sacchi, or using an RNeasy RNA extraction kit (Qiagen, UK). mRNA was reverse transcribed using Thermoscript reverse transcriptase (Fisher Scientific, UK). The cDNA was amplified using primers designed to amplify the region spanning the proximal and distal splice sites in human VEGF-A165a and VEGF-A165b, to amplify both isoforms and differentiate between them due to the fact that the exon 8b-containing isoform is 66-bp shorter than the exon 8a-containing isoform. The primers used were; 5′-[…]-3′ (SEQ ID NO:2) and 5′-[…]-3′ (SEQ ID NO:3) with the following conditions; 96° C. for 2 min followed by 45 cycles at 96° C.-30 s, 60° C.-30 s and 72° C.-30 s. The PCR mix consisted of DNA: 200 ng, MgCl2 0.25 mM, Primer each […], Taq polymerase 1 unit and dH2O up to 25 μl. Control plasmid concentration: VEGF165a 500 ng and VEGF165b 1 μg. PCR products were run on 3% agarose gels containing 0.5 μg/ml ethidium bromide.\nRNA was isolated and reverse transcribed as described above. Quantitative PCR (qPCR) was performed with a LightCycler 480 (Roche) q-PCR machine. The qPCR mix included PCR-grade dH2O 3 PCR Primer (1 μM) 2 μl. […]\nVEGF-A alternative splicing was further measured in retinal pigmented epithelial cells by qRT-PCR and conventional PCR."}, "[2]": {"tested_on": "VEGF165b and VEGF165 protein in retinal pigmented epithelial cells", "assay": "VEGF isoform specific ELISA in retinal pigmented epithelial cells", "format": "cell-based, human", "conditions": "relative to DMSO control, FIG. 3", "procedure": "96-well clear microplate (high sensitivity thermo immulon or costar 9018) were coated with 100 μL of 10 μg/ml VEGFxxxb or 0.25 μg/ml anti-hVEGF165a per well. The plate was sealed with parafilm and incubated overnight on the shaker at room temp. Each well was aspirated and washed with Wash Buffer (200 μl PBS-Tween 0.05%), two times for a total of three washes. After the last wash, remaining Wash Buffer was removed by inverting the plate and blotting it against clean paper towels. Plates were blocked by adding 100 μl of Reagent Diluent (1% BSA/PBS) to each well and incubated at room temp on a shaker for 2 hours. The aspiration/wash step was repeated. 100 μL of standards or samples in 1% BSA/PBS were added to each well, covered with parafilm and incubated 2 hours at room temperature. The aspiration/wash was repeated and 100 μL of 100 ng/ml Detection Antibody (BAF293), diluted in Reagent Diluent, was added to each well which were covered with parafilm and incubated 2 hours at room temp. The aspiration/wash was repeated and 100 μL of the working dilution of Streptavidin-HRP (1:200 dilution) was added to each well. […] The optical density of each well was measured immediately, using a microplate reader set to 450 nm.\nTo determine whether these compounds could switch splicing of VEGF isoforms, VEGF was measured in retinal pigmented epithelial cells by isoform specific ELISA."}, "[3]": {"tested_on": "laser-induced choroidal neovascularisation (CNV)", "assay": "Laser-induced choroidal neovascularisation (CNV) in mice, topical eye drops", "format": "in vivo", "conditions": "mouse, eye drop, FIG. 4-7", "procedure": "6-8 week-old female C57/B6 mice were anesthetized with an intraperitoneal injection of a mixture of 50 mg/kg ketamine and 0.5 mg/kg medetomidine. The pupils were immediately dilated by topical (eyedrop) application with a dilator such as 5% phenylephrine hydrochloride and 1% tropicamide. Four photocoagulation lesions were delivered with a green Merilas 532a laser (450 mW, 130 ms) between the “large” retinal vessels in clear space with no vessels in a peripapillary distribution at a distance of 1-2 disc-diameters in each eye. Only clean laser lesions with a subretinal bubble at the time of treatment were included in the study. Immediately following laser photocoagulation the animals were given topical eye drops of candidate compounds twice daily (10 μl, eyes held for 30 seconds to prevent animal wiping drop away).\nAfter one week, mice were anesthetized with an intraperitoneal injection of a mixture of 50 mg/kg ketamine and 0.5 mg/kg medetomidine. The pupils were immediately dilated by topical (eyedrop) application with a dilator such as 5% phenylephrine hydrochloride and 1% tropicamide. Mice were administered an intraperitoneal injection of sodium fluorescein (10%). Phase contrast and green fluorescent fundus images were taken with an angiography microscope and camera with each lesion in focus. […]"}, "VEGF165b and VEGF165": {"tested_on": "VEGF165b and VEGF165", "conditions": "cited from earlier work"}, "neovascular AMD": {"tested_on": "neovascular AMD", "conditions": "treated monthly, 0.5 mg, at one year; cited from earlier work"}}, "data": [{"molecule": "O=C(Nc1cc(C(F)(F)F)ccc1N1CCN(Cc2cc[nH]n2)CC1)c1ccc(C2CCOCC2)o1", "note": "[Compound 14, N-(2-(4-((1H-pyrazol-3-yl)methyl)piperazin-1-yl)-5-(trifluoromethyl)-phenyl)-5-(tetrahydro-2H-pyran-4-yl)furan-2-carboxamide]", "values": [{"measurement": "VEGF-A165a/VEGF165b mRNA isoform expression", "setting": "[1]; endothelial cells (figure legend)", "result": "decrease"}, {"measurement": "levels of VEGF165b relative to VEGF165 RNA", "setting": "[1]; primary RPE cells and ARPE-19 cells", "result": "switched the levels of VEGF165b relative to VEGF165 RNA by a decrease in VEGF165"}]}, {"molecule": "O=C(Nc1cc(C(F)(F)F)ccc1N1CCN(Cc2cocn2)CC1)c1ccc(-c2ccncc2)o1", "note": "[Compound 17, N-(2-(4-(oxazol-4-ylmethyl)piperazin-1-yl)-5-(trifluoromethyl)phenyl)-5-(pyridin-4-yl)furan-2-carboxamide]", "values": [{"measurement": "VEGF165b protein", "setting": "[2]", "result": "increase in VEGF165b"}, {"measurement": "VEGF165 protein", "setting": "[2]", "result": "not VEGF165 protein"}, {"measurement": "anti-angiogenic activity on lesion size / efficacy compared with reference compound", "setting": "[3]; listed as N-(2-(4-(oxazol-4-ylmethyl)piperazin-1-yl)-5-(trifluoromethyl)phenyl)-5-(pyridin)", "result": "same efficacy"}, {"measurement": "anti-angiogenic activity on lesion size / efficacy compared with reference compound", "setting": "[3]; listed as compound 17", "result": "same anti-angiogenic activity on lesion size and the same efficacy as reference compounds"}]}, {"molecule": "bevicizumab (Avastin): an anti-VEGF antibody from which Lucentis was derived", "values": [{"measurement": "binding potency to VEGF165b versus VEGF165", "setting": "VEGF165b and VEGF165", "result": "equal potency"}]}, {"molecule": "Lucentis: a novel humanized anti-VEGF antibody fragment (antibody, chains of the INN, looked up, V domains shown, Fab, a novel humanized anti-VEGF antibody fragment) VH: EVQLVESGGGLVQPGGSLRLSCAASGYDFTHYGMNWVRQAPGKGLEWVGWINTYTGEPTYAADFKRRFTFSLDTSKSTAYLQMNSLRAEDTAVYYCAKYPYYYGTSHWYFDVWGQGTLVTVSS VL: DIQLTQSPSSLSASVGDRVTITCSASQDISNYLNWYQQKPGKAPKVLIYFTSSLHSGVPSRFSGSGSGTDFTLTISSLQPEDFATYYCQQYSTVPWTFGQGTKVEIK", "values": [{"measurement": "patients who maintained visual acuity (loss of <15 letters)", "setting": "neovascular AMD", "result": "approximately 95%"}, {"measurement": "patients with improved vision (gain of ≥15 letters)", "setting": "neovascular AMD", "result": "≤ 40", "unit": "%"}]}]}
